Measurements from ChEMBL document CHEMBL5506059, “Cyanomethylquinolones as a New Class of Potential Multitargeting Broad-Spectrum Antibacterial Agents” (J Med Chem, 2024).
In brackets after ≈: the same amount, converted by molar mass. Activity calls are given as the source filed them. The calls are words filed in the database; no cut-off is given here.

Assays:
Calf thymus DNA [1] = assay: Binding affinity to calf thymus DNA assessed as DNA-compound complex formation by measuring increase in absorption of DNA at 260 nm at 0 to 2.3 x 10^-8mol/L by UV absorption spectra based analysis; assay type: nucleic-acid assay; conditions: Bos taurus; dose 0-2.3 10^-8mol/L
[2] = Hemolytic activity in human Red blood cells at 32 ug/ml measured after 1.5 hrs by absorbance based assay relative to control; assay type: toxicity, cell-based, Erythrocyte; conditions: red blood cells (erythrocytes), at 32 µg/mL, read-out: Activity
Pseudomonas aeruginosa [3] = assay: Resistance development in Pseudomonas aeruginosa assessed as increase in MIC measured after 20 days; assay type: functional, organism-based; conditions: time 20.0 day
[4] = Cytotoxicity against human FHC assessed as inhibition of cell growth measured after 24 hrs by MTT assay; assay type: toxicity, cell-based; conditions: FHC cells
Staphylococcus aureus [5] = assay: Antibacterial activity against methicillin-resistant Staphylococcus aureus ATCC 43300 assessed as inhibition of bacterial growth incubated for 24 hrs; assay type: functional
Acinetobacter baumannii = assay: Antibacterial activity against Acinetobacter baumannii clinical isolate assessed as inhibition of bacterial growth incubated for 24 hrs; assay type: functional
Calf thymus DNA [6] = assay: Binding affinity to calf thymus DNA assessed as DNA-compound complex formation by measuring hypochromism at 0 to 2.3 x 10^-8mol/L by UV absorption spectra based analysis; assay type: nucleic-acid assay; conditions: Bos taurus; dose 0-2.3 10^-8mol/L
Pseudomonas aeruginosa [7] = assay: Antibacterial activity against Pseudomonas aeruginosa ATCC 27853 assessed as inhibition of bacterial growth incubated for 24 hrs; assay type: functional
[8] = Cytotoxicity against HUVEC cells assessed as cell viability at 25 ug/ml measured after 24 hrs by MTT assay relative to control; assay type: toxicity, cell-based; conditions: human, at 25 µg/mL, read-out: Activity
Enterococcus faecium = assay: Antibacterial activity against Enterococcus faecium ATCC 19434 assessed as inhibition of bacterial growth incubated for 24 hrs; assay type: functional
HUVEC = assay: Cytotoxicity against HUVEC cells assessed as reduction in cell viability at 0.78 to 25 ug/ml measured after 24 hrs by MTT assay; assay type: toxicity, cell-based; conditions: human, dose 0.78-25 µg/ml
Staphylococcus aureus [9] = assay: Resistance development in methicillin resistant Staphylococcus aureus assessed as increase in MIC measured after 20 days; assay type: functional, organism-based; conditions: time 20.0 day
Staphylococcus aureus [10] = assay: Antibacterial activity against methicillin resistant Staphylococcus aureus clinical isolate assessed as inhibition of bacterial growth incubated for 24 hrs; assay type: functional
Enterococcus faecalis [11] = assay: Antibacterial activity against Enterococcus faecalis clinical isolate assessed as inhibition of bacterial growth incubated for 24 hrs; assay type: functional
[12] = Cytotoxicity against human normal Squamous epithelial cell (NOK) assessed as inhibition of cell growth measured after 24 hrs by MTT assay; assay type: toxicity, cell-based; conditions: normal squamous epithelial cells (NOK)
Pseudomonas aeruginosa [13] = assay: Antibacterial activity against Pseudomonas aeruginosa clinical isolate assessed as inhibition of bacterial growth incubated for 24 hrs; assay type: functional
Klebsiella pneumoniae = assay: Antibacterial activity against Klebsiella pneumoniae clinical isolate assessed as inhibition of bacterial growth incubated for 24 hrs; assay type: functional
Escherichia coli [14] = assay: Antibacterial activity against Escherichia coli ATCC 25922 assessed as inhibition of bacterial growth incubated for 24 hrs; assay type: functional
L02 = assay: Cytotoxicity against human L02 cells assessed as reduction in cell viability at 0.78 to 25 ug/ml measured after 24 hrs by MTT assay; assay type: toxicity, cell-based; conditions: l02, 24 h, dose 0.78-25 µg/ml
Calf thymus DNA [15] = assay: Binding affinity to calf thymus DNA assessed as disruption of DNA confirmation by measuring blue shift at 0 to 2.3 x 10^-8mol/L by UV absorption spectra based analysis; assay type: nucleic-acid assay; conditions: Bos taurus; dose 0-2.3 10^-8mol/L
[16] = Cytotoxicity against human FHC assessed as cell viability at 20 ug/ml measured after 24 hrs by MTT assay relative to control; assay type: toxicity, cell-based; conditions: FHC cells, at 20 µg/mL, read-out: Activity
Staphylococcus aureus [17] = assay: Antibacterial activity against Staphylococcus aureus CMCC(B)26003 assessed as inhibition of bacterial growth incubated for 24 hrs; assay type: functional
Staphylococcus aureus [18] = assay: Antibacterial activity against Staphylococcus aureus ATCC 12600 assessed as inhibition of bacterial growth incubated for 24 hrs; assay type: functional
Escherichia coli [19] = assay: Antibacterial activity against Escherichia coli clinical isolate assessed as inhibition of bacterial growth incubated for 24 hrs; assay type: functional
Staphylococcus aureus [20] = assay: Antibacterial activity against Staphylococcus aureus ATCC 25923 assessed as inhibition of bacterial growth incubated for 24 hrs; assay type: functional
Streptococcus pyogenes [21] = assay: Potency index, ratio of norfloxacin MIC to test compound MIC for antibacterial activity against Streptococcus pyogenes ATCC 19615 assessed as inhibition of bacterial growth incubated for 24 hrs; assay type: functional
Streptococcus pyogenes [22] = assay: Potency index, ratio of ciprofloxacin MIC to test compound MIC for antibacterial activity against Streptococcus pyogenes ATCC 19615 assessed as inhibition of bacterial growth incubated for 24 hrs; assay type: functional
Calf thymus DNA [23] = assay: Competitive binding affinity to calf thymus DNA assessed as displacement of neutral red from DNA-neutral red complex by measuring reduction in absorbance at 540 nm at 0 to 2.1x10^-8 mol/L by UV absorption spectroscopy; assay type: nucleic-acid assay; conditions: Bos taurus; dose 0-2.1 10^-8mol/L
Enterococcus faecalis [24] = assay: Antibacterial activity against vancomycin-resistant Enterococcus faecalis clinical isolate p1-2007225053 assessed as inhibition of bacterial growth incubated for 24 hrs; assay type: functional
Staphylococcus aureus [25] = assay: Antibacterial activity against Staphylococcus aureus CMCC(B)26001 assessed as inhibition of bacterial growth incubated for 24 hrs; assay type: functional
Erythrocyte = assay: Hemolytic activity in human Red blood cells assessed as concentration required for 5% hemolysis measured after 1.5 hrs by absorbance based assay; assay type: toxicity, cell-based
Streptococcus pyogenes [26] = assay: Antibacterial activity against Streptococcus pyogenes ATCC 19615 assessed as inhibition of bacterial growth incubated for 24 hrs; assay type: functional
Enterococcus faecalis [27] = assay: Antibacterial activity against vancomycin-resistant Enterococcus faecalis clinical isolate p1-2007226001 assessed as inhibition of bacterial growth incubated for 24 hrs; assay type: functional
Staphylococcus aureus [28] = assay: Antibacterial activity against Staphylococcus aureus clinical isolate assessed as inhibition of bacterial growth incubated for 24 hrs; assay type: functional
Streptococcus pneumoniae = assay: Antibacterial activity against Streptococcus pneumoniae ATCC 6305 assessed as inhibition of bacterial growth incubated for 24 hrs; assay type: functional
Staphylococcus aureus [29] = assay: Antibacterial activity against Staphylococcus aureus ATCC 6538 assessed as inhibition of bacterial growth incubated for 24 hrs; assay type: functional
Staphylococcus aureus [30] = assay: Antibacterial activity against Staphylococcus aureus ATCC 29213 assessed as inhibition of bacterial growth incubated for 24 hrs; assay type: functional
[31] = test system: Staphylococcus epidermidis; assay: Antibacterial activity against Staphylococcus epidermidis ATCC 12228 assessed as inhibition of bacterial growth incubated for 24 hrs; assay type: functional

Structure (SMILES): N#CCc1cc2c(cc1F)c(=O)c(C(=O)O)cn2Cc1ccccc1Cl
- Activity (Calf thymus DNA [1]): Active
- hemolysis at 1.5 h, 32 ug/ml [2]: 4%
- Activity (Pseudomonas aeruginosa [3]): inactive
- IC50 at 24 h [4]: 141 µg/mL (≈ 380 µM)
- MIC (Staphylococcus aureus [5]): 4 µg/mL (≈ 10.8 µM)
- MIC (Acinetobacter baumannii): 0.5 µg/mL (≈ 1.35 µM)
- Activity (Calf thymus DNA [6]): Active
- MIC (Pseudomonas aeruginosa [7]): 0.5 µg/mL (≈ 1.35 µM)
- viability at 24 h, 25 ug/ml [8]: > 90%
- MIC (Enterococcus faecium): 4 µg/mL (≈ 10.8 µM)
- Activity (HUVEC): Non-Toxic
- Activity (Staphylococcus aureus [9]): inactive
- MIC (Staphylococcus aureus [10]): 256 µg/mL (≈ 690 µM)
- MIC (Enterococcus faecalis [11]): 256 µg/mL (≈ 690 µM)
- IC50 at 24 h [12]: 1.38 µg/mL (≈ 3.72 µM)
- MIC (Pseudomonas aeruginosa [13]): 0.25 µg/mL (≈ 0.674 µM)
- MIC (Klebsiella pneumoniae): 2 µg/mL (≈ 5.39 µM)
- MIC (Escherichia coli [14]): 0.25 µg/mL (≈ 0.674 µM)
- Activity (L02): Non-Toxic
- Activity (Calf thymus DNA [15]): Active
- viability at 24 h, 20 ug/ml [16]: > 80%
- MIC (Staphylococcus aureus [17]): 0.125 µg/mL (≈ 0.337 µM)
- MIC (Staphylococcus aureus [18]): 128 µg/mL (≈ 345 µM)
- MIC (Escherichia coli [19]): 0.25 µg/mL (≈ 0.674 µM)
- MIC (Staphylococcus aureus [20]): 0.25 µg/mL (≈ 0.674 µM)
- Ratio (Streptococcus pyogenes [21]): 128
- Ratio (Streptococcus pyogenes [22]): 64
- Activity (Calf thymus DNA [23]): Active
- MIC (Enterococcus faecalis [24]): 128 µg/mL (≈ 345 µM)
- MIC (Staphylococcus aureus [25]): 0.25 µg/mL (≈ 0.674 µM)
- HC5 (Erythrocyte): 64 µg/mL
- MIC (Streptococcus pyogenes [26]): 0.25 µg/mL (≈ 0.674 µM)
- MIC (Enterococcus faecalis [27]): 64 µg/mL (≈ 173 µM)
- MIC (Staphylococcus aureus [28]): 256 µg/mL (≈ 690 µM)
- MIC (Streptococcus pneumoniae): 16 µg/mL (≈ 43.2 µM)
- MIC (Staphylococcus aureus [29]): 4 µg/mL (≈ 10.8 µM)
- MIC (Staphylococcus aureus [30]): 0.25 µg/mL (≈ 0.674 µM)
- MIC [31]: 0.25 µg/mL (≈ 0.674 µM)
